Measurements reported in a melting point compilation (Tetko et al.; mined from patent text by program, amines drawn as free bases though some values may be those of a salt).

Row | melting point | Compound
1 | 155 to 157 °C | COc1ccc(N2CCN(c3nc(NC(C)(C)C(C)(C)C)nc(NC(C)(C)C(C)(C)C)n3)CC2)cc1
2 | 245 to 247 °C | CC(=O)N(C(C)=O)c1cc2c(Nc3ccc(Sc4nccn4C)c(Cl)c3)c(C#N)cnc2cc1N1CCC(N2CCCC2)CC1
3 | 197 to 200 °C | O=C1N(Cc2cncc(F)c2)c2ccccc2C12COc1cc3c(cc12)OCCO3 (stereo not given)
4 | 199 to 201 °C | CCCc1n[nH]c2c(=O)[nH]c(-c3ccccc3OCC)nc12
5 | 185 °C | O=[N+]([O-])c1cccc(-c2ccc3c(n2)[nH]c2ccccc23)c1
6 | 105 °C | C[Si](Cn1nc[nH]c1=S)(c1ccccc1F)c1ccccc1F
7 | 108 to 110 °C | CCCn1nc2oc(=O)cc(C)c2c1C
8 | 171 to 172 °C | Cc1cc(NC(=O)C(=O)N(C)C)cc(C)c1S(=O)(=O)C[N+](=O)[O-]
9 | 215 to 217 °C | CC(C)Nc1cccnc1N1CCN(C(=O)c2ccc(C(=O)O)cc2)CC1
10 | 177 to 178 °C | Cc1cc(C)cc(CNC(=O)C(Cc2c[nH]c3ccccc23)NC(=O)c2ccccc2)c1 (stereo not given)
11 | > 275 °C | COC(=O)Nc1nc(-c2ccccc2)c(-c2nc3ccccc3c(=O)n2-c2ccccc2Cl)s1
12 | 107 to 112 °C | COc1cc(C(C)(C)O)cc(Br)c1O
13 | 125 to 129 °C | Brc1ccccc1CCn1ccccc1=NC(=NC1CCCCC1)NC1CCCCC1
14 | 278 to 279 °C | O=C(O)c1ccc(-c2nc(-c3ccc(Oc4ccccc4)cc3)no2)cc1
15 | 170 to 173 °C | CCc1noc(C)c1-c1[nH]c2ccccc2c1C(C)=O
16 | 136 to 137 °C | O=C(Nc1c([N+](=O)[O-])cnn1-c1c(Cl)cc(C(F)(F)F)c(Cl)c1Cl)C(F)(F)F
17 | 199 to 200 °C | COC(=O)c1ccc(Cn2c(C(=O)Nc3nc(-c4cc(OC)c(Cl)cc4OC)c(CCC4CCCCC4)s3)cc3cc(C)cc(C)c32)cc1
18 | 235 to 238 °C | COC(=O)c1cc(C(=O)N2CCC(C(N)=O)CC2)c2cc(Cc3ccc(F)cc3)cnc2c1O
19 | 108 to 110 °C | CC1(C)CC(O)CC(C)(C)N1N=Nc1ccc([N+](=O)[O-])cc1
20 | 220 to 224 °C | NC(=O)c1[nH]c2ccc(C(O)(C(F)(F)F)C(F)(F)F)cc2c1-c1ccccc1
21 | 124 to 126 °C | COc1cccc(COc2ccc(S(=O)(=O)c3ccc(C)nc3Nc3c(C)cc(C)cc3C)cc2)c1OC
22 | 87 to 88 °C | Cn1cccc1C(N)=S

Row | melting point | Compound
23 | 147 to 148 °C | Cn1nnnc1C=C(c1ccccc1)c1ccccc1
24 | 240 to 241 °C | Clc1nc(N2CCCCC2)c2nc(Cl)nc(N3CCCCC3)c2n1
25 | 150 to 151 °C | N#CNC=Nc1ccc(-c2ccccn2)cc1
26 | 180 °C | CCCc1nc(SC)c(C=O)n1Cc1ccc(-c2ccccc2S(=O)(=O)NC(=O)NCc2ccccc2)cc1
27 | 148 °C | CN1CCN(c2ccc(OCc3cc(CCC(=O)O)c4c(c3)CC(NS(=O)(=O)c3ccc(Cl)cc3)CC4)cc2)CC1 (stereo not given)
28 | 205 to 206 °C | CCc1[nH]n(C2CCCC2)c2nc(-c3ccnc4ccccc34)nc(=O)c1-2
29 | 140 °C | COc1cc2c(cc1OC)C(C(CO)CO)NCC2 (stereo not given)
30 | 199 to 200 °C | CCc1cccc(-c2cnc3[nH]cc(C(=O)C(C)(C)C)c3n2)c1
31 | 186 to 187 °C | O=C(Cc1cccc2ccccc12)N[C@H](Cc1ccc(C(F)(F)F)cc1)[C@@H](O)c1ccc(F)cc1 (racemic)
32 | 208 °C | O=C(Nc1ccc(N2CCN(C(C(=O)NCC(F)(F)F)c3ccccc3)CC2)cc1)c1ccccc1-c1ccc(C(F)(F)F)cc1 (stereo not given)
33 | 218 °C | O=C(O)c1cc(-c2ccc(Cl)cc2)nn1Cc1ccc(Cl)cc1Cl
34 | 100 to 102 °C | N#Cc1ccc(C=C(C(=O)C2CC2)C(=O)C2CC2)cc1
35 | 82.5 to 83 °C | COc1ccc(/C=C(\C#N)c2ccccn2)cc1OC1CCCC1
36 | 158 to 160 °C | Cc1cc(F)ccc1-c1cscc1-c1ccc(S(C)(=O)=O)cc1
37 | 167 to 171 °C | NC(=O)C1=CC=CNC=C1
38 | 134 to 135 °C | COc1ccc(/C(=C\C=C\C(=O)Oc2ccc([N+](=O)[O-])cc2)c2ccccc2OC)cc1
39 | 105 to 108 °C | Cc1c(C(C)(C)C)cc(C(C)C)c(-c2c(C(C)C)cc(C(C)(C)C)c(C)c2O)c1O
40 | 138 to 140 °C | Cc1c(-c2ccccc2)[nH]c2ccc(Br)cc12
41 | 137 to 139 °C | CCOc1cc(N2CCOCC2)c(OCC)cc1N=NNN1CCOCC1
42 | 116 to 118 °C | CCN(C)c1nc2sc3c(NCc4ccco4)ncnc3c2c2c1CCC(C)(C)C2
43 | 185 °C | N#CCNC(=O)c1ccc(Cl)cc1
44 | 191 to 192 °C | NC(=O)Cc1cccc2c(-c3ccccc3)onc12

Row | melting point | Compound
45 | 90 to 94 °C | COc1ccc(N2CCN(c3c(C)c(C)c4c(c3C)C(Nc3ccccc3)C(C)(C)O4)CC2)cc1 (stereo not given)
46 | 158 to 159 °C | CC(C)(C)c1ccc2c(c1)C(CO)c1cc(C(C)(C)C)ccc1S2
47 | 127 to 129 °C | CCc1nc(/C=C/c2cn(-c3ccccc3)nc2OCc2ccc(OCc3nc(-c4cccc([N+](=O)[O-])c4)oc3C)c(OC)c2)cs1
48 | 122 °C | COc1ccc(Cn2cnc3c(-c4ccco4)nc(OCc4ccccc4)nc32)cc1
49 | 71.5 °C | CCOC(=O)c1cc(C#N)cc(C(F)(F)F)n1
50 | 168 to 169 °C | CC(C)(C)OC(=O)C(C1NC(C(=O)OCc2ccccc2)C2(CCOCC2)S1)N1C(=O)c2ccccc2C1=O (stereo not given)
51 | 151 to 153 °C | O=C1NC(=O)C(Cc2ccc(OCc3cscn3)cc2)S1 (stereo not given)
52 | 138 to 142 °C | CNC(=O)N1CC(Oc2cccc(C)c2)C1
53 | 178 °C | CO[C@@H]1[C@@H](OC)[C@H](C)O[C@@H](ON=Cc2ccc(-c3cn(-c4ccc(OC(F)(F)F)cc4)cn3)cc2)[C@@H]1OC
54 | 150 to 151 °C | COC(=O)c1ccccc1S(=O)(=O)NC(=O)Nc1nnc(C)c(C)n1
55 | 149 to 151 °C | CC(=O)c1cc(Oc2ccc(NC(=O)Nc3ccccc3C(F)(F)F)cc2)ncn1
56 | 228 to 230 °C | CCOC(=O)c1cn(C2CCCCC2)c2cc(C#Cc3cc(Cc4cnc(N)nc4N)cc(OC)c3OC)ccc2c1=O
57 | 141 to 149 °C | O=C1N[C@H]2CCN(C(=O)OCc3ccccc3)[C@H]2[C@H]1C1CC1 (relative stereo)
58 | 144 to 146 °C | N#Cc1cc(C(=O)N2CCC[C@H](c3nc(-c4ccc(F)cc4)no3)C2)ccc1F
59 | 166 °C | O=C1CN2C(=O)N(c3cc(Cl)nc(Cl)c3)C(=O)[C@@]2(Cc2ccc(OC(F)(F)F)cc2)C1
60 | 154 to 155 °C | N#Cc1cc([N+](=O)[O-])ccc1Oc1ccc(Cl)c(Cl)c1
61 | 172 to 175 °C | COc1ccc(CCCC2SC(=O)NC2=O)c2ccc(=O)n(C)c12 (stereo not given)
62 | 172 to 174 °C | O=C(O)CCCNC(=O)c1cccc(NC(=O)c2ccccc2O)c1
63 | 122 to 126 °C | O=C(NCC12CC3CC(CC(C3)C1)C2)c1cc(-c2ncccc2OCc2nnn[nH]2)ccc1Cl
64 | 232 °C | CC=CC(=O)Nc1n[nH]c2cc(Br)ccc12
65 | 187 to 189 °C | COc1ccc(C(=C/C=C/C(=O)O)c2ccc(OC)cc2)cc1
66 | 158 to 161 °C | O=C1CC(C(F)(F)F)CC(=O)N1c1cc(C2OCCCO2)c(Cl)cc1F

Row | melting point | Compound
67 | 90 to 92 °C | C=CC(=O)NCc1cc(C)c(OCC2CO2)c(C)c1 (stereo not given)
68 | 166 to 172 °C | NC(=O)c1cc(OCCNCC(O)c2ccccc2)ccc1O (stereo not given)
69 | 75 to 77 °C | CC(O)CN1N=CCCC1c1ccc(Cl)c(Cl)c1 (stereo not given)
70 | 130 to 131 °C | CN1CCN(c2ccccc2CC2CCN(c3ccc(F)c(F)c3)C2=O)CC1 (stereo not given)
71 | 229 to 230 °C | CC(C)c1nc(N)cc(=O)[nH]1
72 | 54 to 57 °C | CNc1ccsc1C(=O)OC
73 | 113 to 114 °C | CC(C)(C)OC(=O)NC1Cc2ccccc2C1Oc1ccccc1Cc1ccccc1 (stereo not given)
74 | 92 to 94 °C | CC1(C)OCC(COS(=O)(=O)c2ccc([N+](=O)[O-])cc2)O1 (stereo not given)
75 | 212 to 213 °C | Cc1ccc(N2CC(COc3ccc(C(=O)O)cc3)CC2=O)cc1 (stereo not given)
76 | 208 to 210 °C | OCc1cc(N(c2ccccc2)c2ccccc2)c(CO)cc1N(c1ccccc1)c1ccccc1
77 | 118 to 124 °C | O=CN1CCN(O)CC1
78 | 102 to 106 °C | Cc1cc(C)c2cccc(OCc3c(Cl)ccc(S(=O)(=O)N4CCC[C@H]4C(=O)NCCCNC(=O)c4cccc(C#N)c4)c3Cl)c2n1
79 | 188 to 190 °C | O=C(NCc1ccc(Cl)cc1)c1noc2ccc(I)cc2c1=O
80 | 273 °C | CCCNC(=O)c1cc2c(nc(C)n2C)c2c1CCC(c1ccccc1)O2 (stereo not given)
81 | 140 to 143 °C | COc1ccc([C@H]2c3[nH]c4ccccc4c3C[C@H]3C(=O)N(CCc4ccccn4)C(=O)N23)cc1 (relative stereo)
82 | 137 to 138 °C | CCOCC1N=NC(=S)N1C (stereo not given)
83 | 170 to 171 °C | COc1ccc2c(Oc3ccc(OCCN4CCCCC4)cc3)c(-c3cccc(O)c3)ccc2c1
84 | 149 to 150 °C | COC(=O)c1ccc(CNC(C)=O)cc1S(=O)(=O)NC(=O)Nc1nc(OC)cc(OC)n1
85 | 280 to 282 °C | O=C1NC(=O)C(CC(=O)N2CCN(c3cccc(CNC(=O)c4nc5ccccc5c(=O)[nH]4)c3)CC2)N1 (stereo not given)
86 | 218 °C | COc1cc2c(nc1OC)c(-c1cc3cc(F)cnc3[nH]1)cn2CCN1CCOCC1
87 | 120 to 121 °C | CC[C@@]1(C)OC(=O)C(c2ccc(F)cc2)=C1c1ccc(S(C)(=O)=O)cc1
88 | 76 to 81 °C | COC(=O)c1cc(S(C)(=O)=O)ccc1OCC(C)C

Row | Compound | melting point
89 | CC#Cc1ncn2c1[C@@H]1CCCN1C(=O)c1c(Cl)cccc1-2 | 208 to 209 °C
90 | CN(C)c1c(SC(F)(F)F)c(C#N)nn1-c1c(Cl)cc(C(F)(F)F)cc1Cl | 110 to 111 °C
91 | Fc1cc(N=C2NCCN2)c(F)c(F)c1F | 141 to 143 °C
92 | CCC(=O)c1ncn2c1CN(C)C(=O)c1ccccc1-2 | 215 to 216 °C
93 | CCCC(=O)Nc1cc(C(=O)Nc2cc(C(=O)Nc3ccc(O)cc3CCBr)n(C)c2)n(C)c1 | 138 to 150 °C
94 | Cc1nnc(CN2C(=O)c3ccccc3C2=O)n1-c1ccc(Cl)cc1C(=O)c1ccccc1 | 215 to 218 °C
95 | CNc1ccc(Cl)cc1C(=N)c1ccccc1 | 93 to 95 °C
